26 molecules from US7531557B2, “Diaryl ethers as opioid receptor antagonists” (Eli Lilly and Company, priority 2002, dated 2009) can be followed below.

What is called melting point is the temperature, or range, at which the solid turns liquid.

Counter-ions that a name gives are not always drawn.

For data set [1], the system named is mu, delta and kappa receptors in rat striatum/nucleus accumbens. Put plainly: Ex-vivo receptor binding of 3H-diprenorphine in rat brain after oral dosing. To be noted: 7 mg/kg p.o., 6 hours after administration, striatum/nucleus accumbens homogenate, versus vehicle.
In another data set the target is mu opioid receptor (MOR) (Homo sapiens, UniProt P35372). Put plainly: SPA-based GTP-γ-S binding assay, antagonist mode, mu. The format is biochemical. To be noted: antagonist assay against DAMGO 1 micromolar; Kb by Cheng-Prusoff equation; read-out: In Vitro Antagonism GTP-γ-S Kb Mu. On the procedure: (§1) An SPA—based GTP-γ-S assay format was developed based on previous opioid (Emmerson et al., J. Pharm Exp Ther 278, 1121, 1996; Horng et al., Society for Neuroscience Abstracts, 434.6, 2000) and muscarinic (DeLapp et al., JPET 289, 946, 1999) assay formats. Membranes were re-suspended in 20 mM HEPES, 100 mM NaCl, 5 mM MgCl2, 1 mM DTT, and 1 mM EDTA. Fifty (50) […] of GTP-γ-[35S], compound, membrane suspension (20 microgram/well), and wheat germ agglutinin coated SPA beads (1 mg/well) were added to clear bottom 96 well assay plates. GDP ([…]) was added to the membrane solution prior to addition to the assay plates. Plates were sealed and incubated for four hours at room temperature then placed in a refrigerator overnight to allow the beads to settle. Signal stability at 4° C. was determined to be >60 hours. Plates were warmed to room temperature and counted in a Wallac Microbeta scintillation counter. For antagonist assays, specific agonists were added at the following concentrations: (MOR) DAMGO 1 micromolar, (DOR) DPDPE 30 nM, (KOR) U69593 300 nM. Kb's were determined by Cheng-Prusoff equation (see Cheng and Prusoff, Biochem. Pharmacol. 22, 3099, 1973).
Sequence of mu opioid receptor (MOR) (P35372 whole entry): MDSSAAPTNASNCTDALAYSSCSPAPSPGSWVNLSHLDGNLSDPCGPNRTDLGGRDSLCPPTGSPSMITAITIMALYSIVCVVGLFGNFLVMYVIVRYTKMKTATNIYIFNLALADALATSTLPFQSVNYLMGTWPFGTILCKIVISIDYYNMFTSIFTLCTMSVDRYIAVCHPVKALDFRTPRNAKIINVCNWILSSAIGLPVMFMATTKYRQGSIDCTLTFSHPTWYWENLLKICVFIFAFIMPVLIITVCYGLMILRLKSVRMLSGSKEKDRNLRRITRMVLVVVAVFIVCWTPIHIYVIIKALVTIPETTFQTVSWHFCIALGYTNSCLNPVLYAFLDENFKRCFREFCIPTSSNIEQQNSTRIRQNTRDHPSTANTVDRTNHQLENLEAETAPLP

Data set [2] has as its target kappa opioid receptor (KOR) (Homo sapiens, UniProt P41145). As to the kind of experiment: SPA-based GTP-γ-S binding assay, antagonist mode, kappa. Type of data set: biochemical. To be noted: antagonist assay against U69593 300 nM; Kb by Cheng-Prusoff equation; read-out: In Vitro Antagonism GTP-γ-S Kb Kappa. Here is the method: as §1
In general terms: Binding of GTPγS marks nucleotide exchange on a G protein.

For data set [3], the target named is delta opioid receptor (DOR) (Homo sapiens, UniProt P41143). As to the kind of experiment: SPA-based GTP-γ-S binding assay, antagonist mode, delta. The settings on record: antagonist assay against DPDPE 30 nM; Kb by Cheng-Prusoff equation; read-out: In Vitro Antagonism GTP-γ-S Kb Delta. The format is biochemical. Here is the method:
as §1

The test system of the next data set is Diet Induced Obese Rat. Put plainly: Indirect calorimetry assay (food consumption, energy balance). The format is in vivo. To be noted: for minimal effective dose: Rattus norvegicus, po, lowest dose with food consumption over 24 hours significantly different from vehicle, read-out: Inhibition of Feeding Diet Induced Obese Rat Minimum Effective Dose (MED); for Energy Balance Diet Induced Obese Rat: test dose 3 mg/kg, p.o., energy balance = caloric intake minus utilization. Here is the method:
Indirect Calorimetry Assay
Twenty-four-hour energy expenditure (EE) and respiratory quotient (RQ) were measured by indirect calorimetry using an open circuit calorimetry system (Oxymax, Columbus Instruments Int. Corp., USA). RQ is the ratio of the volume of CO2 produced (VCO2) to the volume of O2 consumed (VO2). EE was calculated as the product of calorific value of oxygen (CV) and VO2 per kilogram of body weight, where CV=3.815+1.232 (RQ). Total calories expended were calculated to determine daily fuel utilization. To calculate the proportion of protein, fat and carbohydrate that is used during that 24-hour period, we used Flatt's proposal (see, Flatt J P 1991 Assessment of daily and cumulative carbohydrate and fat balances in mice. J Nutr Biochem 2:193-202.) and formulae as well as other derived constants (see Elia M, Livesey G 1992 Energy expenditure and fuel selection in biological systems: the theory and practice of calculations based on indirect calorimetry and tracer methods. World Rev Nutr Diet 70:68-131.). Food consumption over the 24-hour period was also measured. […] Results obtained for a sample of compounds of the invention with the indirect calorimetry assay are shown below in Table 4.

Sequence of kappa opioid receptor (KOR) (P41145 whole entry): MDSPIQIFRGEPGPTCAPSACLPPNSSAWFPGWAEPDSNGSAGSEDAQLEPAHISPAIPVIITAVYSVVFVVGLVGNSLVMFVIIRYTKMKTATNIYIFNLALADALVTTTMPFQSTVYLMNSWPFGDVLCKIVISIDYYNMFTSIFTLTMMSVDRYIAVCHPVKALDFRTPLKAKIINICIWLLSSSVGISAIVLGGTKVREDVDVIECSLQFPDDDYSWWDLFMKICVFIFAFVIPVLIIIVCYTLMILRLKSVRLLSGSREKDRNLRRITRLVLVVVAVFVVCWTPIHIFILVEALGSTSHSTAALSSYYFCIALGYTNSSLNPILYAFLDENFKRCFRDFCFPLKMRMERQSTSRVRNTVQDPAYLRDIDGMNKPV
Sequence of delta opioid receptor (DOR) (P41143 whole entry): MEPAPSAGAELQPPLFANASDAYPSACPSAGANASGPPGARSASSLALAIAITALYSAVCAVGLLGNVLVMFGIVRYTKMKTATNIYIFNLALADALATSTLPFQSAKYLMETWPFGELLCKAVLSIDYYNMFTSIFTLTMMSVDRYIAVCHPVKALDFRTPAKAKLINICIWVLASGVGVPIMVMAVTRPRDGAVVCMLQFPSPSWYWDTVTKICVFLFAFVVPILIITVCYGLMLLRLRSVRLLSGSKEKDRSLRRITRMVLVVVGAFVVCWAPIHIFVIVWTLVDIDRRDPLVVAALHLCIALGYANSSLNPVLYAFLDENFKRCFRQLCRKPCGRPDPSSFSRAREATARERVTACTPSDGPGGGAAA

As to `CC(C)CCNCc1ccc(Oc2ccc(C(N)=O)cn2)c(Cl)c1` [Example 229, 6-[2-Chloro-4-(3-methyl-butylamino-methyl)-phenoxy]nicotinamide], the “Ex Vivo Binding [3H]-Diprenorphine % Inhibition of at 6 hours 7 mg/kg of test compound” value in data set [1] was determined as 77%.

The molecule `NC(=O)c1ccc(Oc2ccc(CNCC3CCCCC3)cc2F)nc1` came in with a melting point of 152 to 153 °C.

`NC(=O)c1ccc(Oc2ccc(CCNCc3cccc(Cl)c3)cc2Cl)nc1` [Example 479, 6-{2-Chloro-4-[2-(3-chloro-benzylamino)-ethyl]-phenoxy}-nicotinamide]: the Kb at mu opioid receptor (MOR) came out at 0.503 nM; in data set [2], 6.86 nM; in data set [3] it was 30.1 nM.

As to `NC(=O)c1ccc(Oc2ccc(CNCCc3cccs3)cc2)nc1` [Example 253, 6-{4-[(2-Thiophen-2-yl-ethylamino)-methyl]-phenoxy}-nicotinamide], the Kb was 0.068 nM on mu opioid receptor (MOR), 0.355 nM in data set [2] and 0.708 nM in data set [3]. Also, the minimal effective dose with Diet Induced Obese Rat is at most 3 mg/kg. Moreover, in the data set on Diet Induced Obese Rat, the “Energy Balance Diet Induced Obese Rat” value was -19 kcal/kg/day. In addition, in data set [1], the “Ex Vivo Binding [3H]-Diprenorphine % Inhibition of at 6 hours 7 mg/kg of test compound” value is listed as above 40%.

With `CC(C)CCNCc1ccc(Oc2ccc(C(N)=O)cn2)c(F)c1` [Example 228, 6-[2-Fluoro-4-(3-methyl-butylamino-methyl)-phenoxy]nicotinamide], in the data set on Diet Induced Obese Rat, the minimal effective dose amounted to 0.3 mg/kg and the “Energy Balance Diet Induced Obese Rat” value was -81 kcal/kg/day. The “Ex Vivo Binding [3H]-Diprenorphine % Inhibition of at 6 hours 7 mg/kg of test compound” value in data set [1] is listed as above 65%.

`NC(=O)c1ccc(Oc2ccc(CNCCc3ccc(F)cc3)cc2)cc1` [Example 294, 4-(4-{[2-(4-Fluoro-phenyl)-ethylamino]-methyl}-phenoxy)-benzamide]: the “Ex Vivo Binding [3H]-Diprenorphine % Inhibition of at 6 hours 7 mg/kg of test compound” value in data set [1] was found to be 50%.

As for `CCCCCNCc1ccc(Oc2ccc(C(N)=O)nc2)c(F)c1` [Example 405, 5-(2-Fluoro-4-pentylaminomethylphenoxy)pyridine-2-carboxamide], the “Ex Vivo Binding [3H]-Diprenorphine % Inhibition of at 6 hours 7 mg/kg of test compound” value in data set [1] is reported as 55%.

In the case of `NC(=O)c1ccc(Oc2ccc(CCNCc3cccc(F)c3)cc2Cl)nc1` [Example 478, 6-{2-Chloro-4-[2-(3-fluoro-benzylamino)-ethyl]-phenoxy}-nicotinamide], the Kb on mu opioid receptor (MOR) worked out at 0.41 nM; in data set [2], 4.5 nM; in data set [3], 5.78 nM.

On to `Cc1cc(CNCCC(C)C)ccc1Oc1ccc(C(N)=O)cn1` [Example 227, 6-[2-Methyl-4-(3-methyl-butylamino-methyl)-phenoxy]nicotinamide], for which, in the data set with Diet Induced Obese Rat, the minimal effective dose stood at 0.3 mg/kg and the “Energy Balance Diet Induced Obese Rat” value is -68 kcal/kg/day. Besides, the “Ex Vivo Binding [3H]-Diprenorphine % Inhibition of at 6 hours 7 mg/kg of test compound” value in data set [1] worked out at 55%.

In the case of `COc1cc(CNCCc2ccccc2F)ccc1Oc1ccc(C(N)=O)cn1` [Example 431, 6-(4-{[2-(2-fluorophenyl)ethylamino]methyl}-2-methoxyphenoxy)nicotinamide], in data set [1], the “Ex Vivo Binding [3H]-Diprenorphine % Inhibition of at 6 hours 7 mg/kg of test compound” value came out at 54%.

Consider `NC(=O)c1ccc(Oc2ccc(CNCC3CC3)cc2F)nc1` [Example 673, 6-[4-(Cyclopropylmethylaminomethyl)-2-fluorophenoxy]nicotinonamide], for which the melting point is 128 to 129 °C.

Take `NC(=O)c1ccc(Oc2ccc3c(c2)CCCN(CCc2ccccc2)C3)nc1` [Example 447, 6-(2-Phenethyl-2,3,4,5-tetrahydro-1H-benzo[c]azepin-7-yloxy)nicotinamide]: the “Ex Vivo Binding [3H]-Diprenorphine % Inhibition of at 6 hours 7 mg/kg of test compound” value in data set [1] was determined as 62%.

`NC(=O)c1ccc(Oc2ccc(CCNCc3ccccc3)cc2Cl)nc1` [Example 475, 6-[4-(2-Benzylamino-ethyl)-2-chloro-phenoxy]-nicotinamide]: the Kb on mu opioid receptor (MOR) was 0.843 nM; in data set [2], 7.86 nM; in data set [3], 17.5 nM.

For the molecule `O=C1CC[C@@]2(O)[C@H]3Cc4ccc(O)c5c4[C@@]2(CCN3CC2CC2)[C@H]1O5` [Naltrexone ®, Naltrexone HCl, reference compound], in the data set on Diet Induced Obese Rat, the minimal effective dose was above 10 mg/kg and the “Energy Balance Diet Induced Obese Rat” value is “Not significant”. Besides, the “Ex Vivo Binding [3H]-Diprenorphine % Inhibition of at 6 hours 7 mg/kg of test compound” value in data set [1] was below 40%.

`CC(C)CCNCc1ccc(Oc2ccc(C(N)=O)cn2)cc1` [Example 271, 6-{4-[(3-Methyl-butylamino)-methyl]-phenoxy}-nicotinamide]: the Kb at mu opioid receptor (MOR) was determined as 0.2 nM; in data set [2] it was 0.4 nM; in data set [3] it was 4.4 nM. The minimal effective dose in the data set with Diet Induced Obese Rat is 0.3 mg/kg. Also, the “Energy Balance Diet Induced Obese Rat” value in the data set on Diet Induced Obese Rat is -35 kcal/kg/day. In addition, in data set [1], the “Ex Vivo Binding [3H]-Diprenorphine % Inhibition of at 6 hours 7 mg/kg of test compound” value is on record as above 40%.

Take `Cc1cc(CNCCC(C)(C)C)ccc1Oc1ccc(C(N)=O)cn1` [Example 238, 6-{4-[(3,3-Dimethyl-butylamino)-methyl]-2-methyl-phenoxy}-nicotinamide]: the “Ex Vivo Binding [3H]-Diprenorphine % Inhibition of at 6 hours 7 mg/kg of test compound” value in data set [1] amounted to 59%.

Regarding `CC(C)(C)CCNCc1ccc(Oc2ccc(C(N)=O)cn2)cc1` [Example 263, 6-{4-[(3,3-Dimethyl-butylamino)-methyl]-phenoxy}-nicotinamide], in the data set with Diet Induced Obese Rat, the minimal effective dose is at most 3 mg/kg and the “Energy Balance Diet Induced Obese Rat” value is -56 kcal/kg/day. In data set [1], the “Ex Vivo Binding [3H]-Diprenorphine % Inhibition of at 6 hours 7 mg/kg of test compound” value is given as 62%.

Turning to `CCCCNCc1ccc(Oc2ccc(C(N)=O)cn2)c(C)c1` [Example 240, 6-(4-Butylaminomethyl-2-methyl-phenoxy)-nicotinamide], in data set [1], the “Ex Vivo Binding [3H]-Diprenorphine % Inhibition of at 6 hours 7 mg/kg of test compound” value came out at 38%.

Regarding `CCCCCNCc1ccc(Oc2ccc(C(N)=O)cn2)c(OC)c1` [Example 420, 6-(2-Methoxy-4-pentylaminomethylphenoxy)nicotinamide], in data set [1], the “Ex Vivo Binding [3H]-Diprenorphine % Inhibition of at 6 hours 7 mg/kg of test compound” value is on record as 75%.

For `Cc1ccccc1CNCCc1ccc(Oc2ccc(C(N)=O)cn2)c(Cl)c1` [Example 476, 6-{2-Chloro-4-[2-(2-methyl-benzylamino)-ethyl]-phenoxy}-nicotinamide], the Kb on mu opioid receptor (MOR) is 0.281 nM; in data set [2], 3.38 nM; in data set [3], 8.9 nM.

Regarding `CC(C)(C)CCNCc1ccc(Oc2ccc(C(N)=O)cn2)c(Cl)c1` [Example 481, 6-{2-Chloro-4-[(3,3-dimethylbutylamino)-methyl]-phenoxy}-nicotinamide], the “Ex Vivo Binding [3H]-Diprenorphine % Inhibition of at 6 hours 7 mg/kg of test compound” value in data set [1] turned out to be 83%.

As to `NC(=O)c1ccc(Oc2ccc(CNCCc3cccc(F)c3)cc2)nc1` [Example 256, 6-(4-{[2-(3-Fluoro-phenyl)-ethylamino]-methyl}-phenoxy)-nicotinamide], the values for the Kb (at mu opioid receptor (MOR); in data set [2]; in data set [3]) were 0.072 nM, 0.894 nM and 0.677 nM, respectively. In addition, the “Ex Vivo Binding [3H]-Diprenorphine % Inhibition of at 6 hours 7 mg/kg of test compound” value in data set [1] is on record as 40%.

Regarding `COc1cc(CNCCC(C)(C)C)ccc1Oc1ccc(C(N)=O)cn1.CS(=O)(=O)O` [Example 446, 6-{4-[(3,3-Dimethylbutylamino)methyl]-2-methoxyphenoxy}nicotinamide methanesulfonate], the “Ex Vivo Binding [3H]-Diprenorphine % Inhibition of at 6 hours 7 mg/kg of test compound” value in data set [1] is 55%.

Take `NC(=O)c1ccc(Oc2ccc(CNCCC3CCCCC3)cc2)nc1` [Example 272, 6-{4-[(2-Cyclohexyl-ethylamino)-methyl]-phenoxy}-nicotinamide]: the “Ex Vivo Binding [3H]-Diprenorphine % Inhibition of at 6 hours 7 mg/kg of test compound” value in data set [1] worked out at 79%.

With `Cc1cc(CNCCC(C)C)ccc1Oc1ccc(C(N)=O)cc1F` [Example 246, 3-Fluoro-4-{2-methyl-4-[(3-methyl-butylamino)-methyl]-phenoxy}-benzamide], the “Ex Vivo Binding [3H]-Diprenorphine % Inhibition of at 6 hours 7 mg/kg of test compound” value in data set [1] is recorded as 58%.

Regarding `NC(=O)c1ccc(Oc2ccc(CNCCC3CCCC3)cc2)nc1` [Example 309, 6-{4-[(2-Cyclopentyl-ethylamino)-methyl]-phenoxy}-nicotinamide], in the data set with Diet Induced Obese Rat, the minimal effective dose was at most 3 mg/kg and the “Energy Balance Diet Induced Obese Rat” value is -39 kcal/kg/day. In addition, in data set [1], the “Ex Vivo Binding [3H]-Diprenorphine % Inhibition of at 6 hours 7 mg/kg of test compound” value was above 60%.
